Patent US20050164951A1, “Inhibitors for the soluble epoxide hydrolase” (The Regents of the University of California, priority 2003, published 2005)
Like-named read-outs stand apart in the source and are kept apart here.

How the values were obtained:
[1] = target: T1, mouse sEH (Mus musculus, UniProt P34914); experiment: Inhibition of recombinant mouse sEH, IC50 assay with 4-nitrophenyl-trans-2,3-epoxy-3-phenylpropyl carbonate as substrate; assay type: biochemical
T1 construct: made in house; host or cells: baculovirus expression system
T1 sequence (P34914 1-554): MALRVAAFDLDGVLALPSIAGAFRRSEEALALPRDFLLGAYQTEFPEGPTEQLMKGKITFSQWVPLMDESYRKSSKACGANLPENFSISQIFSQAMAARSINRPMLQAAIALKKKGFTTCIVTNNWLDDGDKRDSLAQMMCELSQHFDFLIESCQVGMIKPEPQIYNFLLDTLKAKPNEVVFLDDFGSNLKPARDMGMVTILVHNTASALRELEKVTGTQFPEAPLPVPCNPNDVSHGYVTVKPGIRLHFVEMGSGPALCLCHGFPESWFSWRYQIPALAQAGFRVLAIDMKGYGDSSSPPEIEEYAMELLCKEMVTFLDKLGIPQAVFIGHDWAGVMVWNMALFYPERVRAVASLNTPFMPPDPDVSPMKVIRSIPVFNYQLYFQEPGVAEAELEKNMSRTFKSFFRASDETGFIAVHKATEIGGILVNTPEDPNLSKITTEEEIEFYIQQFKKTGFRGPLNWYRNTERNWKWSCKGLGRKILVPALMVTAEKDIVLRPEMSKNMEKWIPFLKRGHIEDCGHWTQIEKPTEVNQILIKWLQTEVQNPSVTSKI
Protocol: (§1) Assays were performed in triplicate. […] The curve was generated from at least three separate runs, each in triplicate, to obtain the standard deviation (SD) given in Table 1 thru Table 4.

[2] = target: T2, human sEH (Homo sapiens, UniProt P34913); experiment: Inhibition of recombinant human sEH, IC50 assay with 4-nitrophenyl-trans-2,3-epoxy-3-phenylpropyl carbonate as substrate; assay type: biochemical
T2 construct: made in house; host or cells: baculovirus expression system
T2 sequence (P34913 1-555): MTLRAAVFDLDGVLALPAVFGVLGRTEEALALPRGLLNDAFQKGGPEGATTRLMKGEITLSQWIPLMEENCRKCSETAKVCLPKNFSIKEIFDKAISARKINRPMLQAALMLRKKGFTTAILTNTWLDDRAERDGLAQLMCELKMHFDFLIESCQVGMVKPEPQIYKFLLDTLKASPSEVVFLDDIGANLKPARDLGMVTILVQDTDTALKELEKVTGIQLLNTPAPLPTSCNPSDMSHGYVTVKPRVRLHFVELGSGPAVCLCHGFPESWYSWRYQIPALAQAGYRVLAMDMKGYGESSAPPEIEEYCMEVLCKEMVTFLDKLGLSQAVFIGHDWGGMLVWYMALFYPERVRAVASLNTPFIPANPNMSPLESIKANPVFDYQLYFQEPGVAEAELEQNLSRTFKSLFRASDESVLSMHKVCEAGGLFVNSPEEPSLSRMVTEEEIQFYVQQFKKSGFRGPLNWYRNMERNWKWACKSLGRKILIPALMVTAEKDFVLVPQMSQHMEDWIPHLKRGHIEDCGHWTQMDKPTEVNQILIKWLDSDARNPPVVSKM
Protocol: as §1

[3] = Tables 17a and b, read-out: IC50 (μM) Mouse sEH
[4] = Tables 17a and b, read-out: IC50 (μM) Human sEH
[5] = Table 7, established protocols, read-out: IC50 (μM) Mouse sEH
[6] = Table 7, established protocols, read-out: IC50 (μM) Human sEH
[7] = Table 9, established protocols, read-out: IC50 (μM) Mouse sEH
[8] = Table 9, established protocols, read-out: IC50 (μM) Human sEH

| Structure (SMILES) | IC50 [1, 3] [µM] | IC50 [2, 4] [µM] | further results |
| --- | --- | --- | --- |
| CCCCC(CC)OC(=O)CCCNC(=O)NC12CC3CC(CC(C3)C1)C2 (stereo not shown) [Compound 905] | 0.13 ± 0.01 | 0.45 ± 0.01 | – |
| CCCCCOC(=O)C1CCCC(NC(=O)NC23CC4CC(CC(C4)C2)C3)C1 (stereo not shown) [Compound 906] | 0.05 ± 0.01 | – | IC50 [2]: 0.1 ± 0.01 µM |
| CN(C)c1cccc2c(S(=O)(=O)NCCNC(=O)NC34CC5CC(CC(C5)C3)C4)cccc12 [Compound 907] | 0.4 ± 0.01 | 0.6 ± 0.01 | – |
| CCCCC(CC)OCCCCCNC(=O)NC12CC3CC(CC(C3)C1)C2 (stereo not shown) [Compound 910] | 0.05 ± 0.01 | 0.24 ± 0.01 | – |
| CC(=O)Nc1ccc(CC(=O)NC23CC4CC(CC(C4)C2)C3)cc1 [Compound 912] | 4.1 ± 0.01 | 35 ± 0.01 | – |
| C#COCCOCCCCCNC(=O)NC12CC3CC(CC(C3)C1)C2 [Compound 913] | – | – | IC50 [1, 5]: 0.05 ± 0.01 µM; IC50 [2, 6]: 0.1 ± 0.01 µM |
| O=C(CCCCCCCCCCCNC(=O)NC12CC3CC(CC(C3)C1)C2)NS(=O)(=O)c1ccccc1 [Compound 914] | – | 0.1 ± 0.01 | IC50 [1]: 0.05 ± 0.01 µM |
| CCCCC(C)OC(=O)CCCNC(=O)NC12CC3CC(CC(C3)C1)C2 (stereo not shown) [Compound 943] | 0.05 ± 0.01 | 0.13 ± 0.01 | – |
| CCCCC(C#N)OC(=O)CCCNC(=O)NC12CC3CC(CC(C3)C1)C2 (stereo not shown) [Compound 944] | 0.05 ± 0.01 | – | IC50 [2]: 0.2 ± 0.01 µM |
| N#CC(OC(=O)CCCNC(=O)NC12CC3CC(CC(C3)C1)C2)c1ccccc1 (stereo not shown) [Compound 946] | 0.05 ± 0.01 | 0.15 ± 0.01 | – |
| CCOC(=O)c1ccc(C(C#N)OC(=O)CCCNC(=O)NC23CC4CC(CC(C4)C2)C3)cc1 (stereo not shown) [Compound 947] | 0.07 ± 0.01 | 0.11 ± 0.01 | – |
| O=C(NCCCCCOCCOCCOCc1ccccc1)NC12CC3CC(CC(C3)C1)C2 [Compound 951] | – | – | IC50 [1, 5]: 0.05 ± 0.01 µM; IC50 [2, 6]: 0.1 ± 0.01 µM |
| O=C(CCCCCCOCCOCCOCc1ccccc1)NC12CC3CC(CC(C3)C1)C2 [Compound 959] | – | – | IC50 ([1]; Table 8, established protocols, read-out: IC50 (μM) Mouse sEH): 0.05 ± 0.01 µM; IC50 ([2]; Table 8, established protocols, read-out: IC50 (μM) Human sEH): 0.11 ± 0.02 µM |
| CCCCCNC(=O)C1CCCC(NC(=O)NC23CC4CC(CC(C4)C2)C3)C1 (stereo not shown) [Compound 960] | – | – | IC50 [1, 7]: 0.05 ± 0.01 µM; IC50 [2, 8]: 0.1 ± 0.01 µM |
| CCOC(=O)CCCCCCOC1CCC(NC(=O)NC23CC4CC(CC(C4)C2)C3)CC1 (stereo not shown) [Compound 961] | – | – | IC50 [1, 7]: 0.05 ± 0.01 µM; IC50 [2, 8]: 0.1 ± 0.01 µM |

Second part, led by results:

| IC50 [1, 3] [µM] | IC50 [2, 4] [µM] | Structure (SMILES) | further results |
| --- | --- | --- | --- |
| 0.05 ± 0.01 | 0.12 ± 0.01 | CC(C)=CCCC(C)CCOCCCCCNC(=O)NC12CC3CC(CC(C3)C1)C2 (stereo not shown) [Compound 915] | – |
| 0.05 ± 0.01 | 0.1 ± 0.01 | CCOC(=O)c1ccc(COC(=O)C2CCCC(NC(=O)NC34CC5CC(CC(C5)C3)C4)C2)cc1 (stereo not shown) [Compound 942] | – |
| 0.05 ± 0.01 | 0.19 ± 0.01 | O=C(NCCCC(=O)OCc1ccccc1)NC12CC3CC(CC(C3)C1)C2 [Compound 945] | – |
| 0.08 ± 0.01 | 0.12 ± 0.01 | CCOC(=O)c1ccc(C(C)OC(=O)CCCNC(=O)NC23CC4CC(CC(C4)C2)C3)cc1 (stereo not shown) [Compound 948] | – |
| 0.05 ± 0.01 | 0.1 ± 0.01 | CCOC(=O)c1ccc(C(OC(=O)CCCNC(=O)NC23CC4CC(CC(C4)C2)C3)c2ccccc2)cc1 (stereo not shown) [Compound 949] | – |
| 0.05 ± 0.01 | 0.1 ± 0.01 | CCOC(=O)c1ccc(COCCOCCOCCCCCNC(=O)NC23CC4CC(CC(C4)C2)C3)cc1 [Compound 956] | – |
| 0.05 ± 0.01 | 0.23 ± 0.01 | O=C(NCCCCCOCCC(F)(F)F)NC12CC3CC(CC(C3)C1)C2 [Compound 957] | – |
| 0.7 ± 0.01 | 17 ± 0.01 | CCCCCOC(=O)CCCn1ccn(C23CC4CC(CC(C4)C2)C3)c1=O [Compound 958] | – |
